Measurements: EP1247803A2, “Indolinone compounds suitable for modulation of protein kinases” (Sugen, Inc., priority 1996, dated 1998)

Columns and labels:
FLK-1 receptor = biological target: T1, FLK-1 receptor (Mus musculus, UniProt P35918); assay: FLK-1 ELISA (kinase activity of the FLK-1 receptor in FLK-1/NIH3T3 cells, VEGF stimulated); type: cell-based; set-up: concentration or dose not given beside the values
T1 construct: expressed in transfected cells; host or cells: NIH3T3 C7#3
How it was run: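 An ELISA using affinity-purified rabbit anti-FLK-1 antiserum on anti-rabbit IgG-coated plates measured VEGF-stimulated FLK-1 kinase activity. NIH3T3 C7#3 cells carrying FLK-1 were serum-starved (0.1% FBS) overnight, then exposed to compound (final 1:200 dilution, 0.5% DMSO) for two hours at 37 °C.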

PDGF-R = PDGF-R (Homo sapiens, UniProt P09619); assay: PDGF-R ELISA; type: cell-based
Chain of PDGF-R (P09619 33-1106, species assumed): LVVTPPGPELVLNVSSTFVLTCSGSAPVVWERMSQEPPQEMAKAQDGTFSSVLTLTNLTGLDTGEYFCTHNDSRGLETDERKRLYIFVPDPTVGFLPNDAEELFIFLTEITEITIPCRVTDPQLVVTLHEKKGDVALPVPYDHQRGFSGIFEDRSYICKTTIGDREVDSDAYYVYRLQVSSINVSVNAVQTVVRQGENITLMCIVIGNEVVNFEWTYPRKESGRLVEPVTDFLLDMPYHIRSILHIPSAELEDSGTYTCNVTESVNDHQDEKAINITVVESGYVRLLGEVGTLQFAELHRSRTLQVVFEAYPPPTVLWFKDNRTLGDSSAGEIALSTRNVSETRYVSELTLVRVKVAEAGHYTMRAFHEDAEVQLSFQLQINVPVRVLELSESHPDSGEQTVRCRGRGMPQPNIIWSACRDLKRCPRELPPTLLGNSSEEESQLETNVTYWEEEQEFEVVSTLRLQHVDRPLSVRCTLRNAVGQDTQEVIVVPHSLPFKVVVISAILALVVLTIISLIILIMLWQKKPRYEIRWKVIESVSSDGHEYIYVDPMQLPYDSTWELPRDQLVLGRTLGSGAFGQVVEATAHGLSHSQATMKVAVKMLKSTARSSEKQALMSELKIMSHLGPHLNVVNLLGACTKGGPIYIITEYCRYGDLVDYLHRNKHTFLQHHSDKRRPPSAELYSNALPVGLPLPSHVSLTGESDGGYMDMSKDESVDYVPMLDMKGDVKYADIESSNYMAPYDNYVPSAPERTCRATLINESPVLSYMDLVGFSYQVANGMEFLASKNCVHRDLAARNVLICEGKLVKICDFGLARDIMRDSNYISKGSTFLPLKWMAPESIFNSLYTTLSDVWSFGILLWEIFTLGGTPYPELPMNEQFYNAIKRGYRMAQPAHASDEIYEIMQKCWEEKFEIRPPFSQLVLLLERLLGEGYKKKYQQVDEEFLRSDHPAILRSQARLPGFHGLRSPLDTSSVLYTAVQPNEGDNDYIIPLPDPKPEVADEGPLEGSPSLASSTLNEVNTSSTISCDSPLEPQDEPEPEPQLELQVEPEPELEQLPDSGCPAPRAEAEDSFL
Excerpt: A PDGF-R ELISA is described in International Patent Publication No. WO 96/40116, published December 19, 1996 by Tang et al.

MET = MET biochemical kinase assay; set-up: species or system human; concentration or dose not given beside the values
How it was run: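 Immunocaptured MET autophosphorylation, read colorimetrically (TMB) via HRP anti-phosphotyrosine antibody. Kinase reaction initiated with buffer containing ATP and divalent metals after compound addition to plate-bound receptor from lysates.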

T1 sequence (P35918 20-1345): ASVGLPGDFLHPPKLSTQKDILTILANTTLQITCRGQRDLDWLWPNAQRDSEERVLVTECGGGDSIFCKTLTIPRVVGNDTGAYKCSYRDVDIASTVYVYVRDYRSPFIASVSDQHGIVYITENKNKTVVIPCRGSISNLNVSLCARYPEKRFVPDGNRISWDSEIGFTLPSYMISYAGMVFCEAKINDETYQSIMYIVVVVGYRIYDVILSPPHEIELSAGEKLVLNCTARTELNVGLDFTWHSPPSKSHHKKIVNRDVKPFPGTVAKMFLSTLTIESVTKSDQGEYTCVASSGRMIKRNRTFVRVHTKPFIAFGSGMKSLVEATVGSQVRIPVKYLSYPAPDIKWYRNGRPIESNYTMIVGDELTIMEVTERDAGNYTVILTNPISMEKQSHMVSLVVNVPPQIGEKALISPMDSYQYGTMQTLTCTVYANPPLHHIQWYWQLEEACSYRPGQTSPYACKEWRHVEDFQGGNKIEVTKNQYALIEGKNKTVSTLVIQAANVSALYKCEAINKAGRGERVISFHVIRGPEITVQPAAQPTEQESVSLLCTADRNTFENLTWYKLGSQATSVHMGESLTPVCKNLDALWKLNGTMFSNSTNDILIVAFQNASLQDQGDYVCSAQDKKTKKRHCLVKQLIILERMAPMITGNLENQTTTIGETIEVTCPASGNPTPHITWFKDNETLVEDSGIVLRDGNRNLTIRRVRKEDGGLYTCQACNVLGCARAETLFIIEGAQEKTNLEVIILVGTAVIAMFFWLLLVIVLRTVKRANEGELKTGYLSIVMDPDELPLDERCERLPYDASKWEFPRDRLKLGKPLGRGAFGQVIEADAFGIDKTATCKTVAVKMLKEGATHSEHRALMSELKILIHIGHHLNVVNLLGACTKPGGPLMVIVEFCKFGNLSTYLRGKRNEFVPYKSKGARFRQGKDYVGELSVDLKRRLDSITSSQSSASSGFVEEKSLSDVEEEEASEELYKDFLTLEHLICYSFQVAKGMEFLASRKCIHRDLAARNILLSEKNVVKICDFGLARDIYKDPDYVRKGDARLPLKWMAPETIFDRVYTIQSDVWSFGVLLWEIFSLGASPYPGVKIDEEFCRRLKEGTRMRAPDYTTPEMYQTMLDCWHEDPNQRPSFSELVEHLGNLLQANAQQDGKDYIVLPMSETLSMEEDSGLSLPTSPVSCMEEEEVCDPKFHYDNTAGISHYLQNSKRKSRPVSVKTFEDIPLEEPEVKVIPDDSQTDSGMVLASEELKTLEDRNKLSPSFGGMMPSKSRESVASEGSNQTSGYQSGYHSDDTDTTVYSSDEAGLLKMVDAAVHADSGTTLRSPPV

Row | Structure (SMILES) | Fik Kinase %Inhibition (FLK-1 receptor) [%] | PDGF Kinase %Inhibition (PDGF-R) [%] | Met Kinase % Inhibition (MET) [%]
1 | CNS(=O)(=O)c1ccc2c(c1)C(=Cc1ccccn1)C(=O)N2 [10729/D07] | -15.3 | -20.0 | 25.5
2 | COc1cc(Br)c(O)c(C=C2C(=O)Nc3ccc(I)cc32)c1 [10718/B03] | 1.7 |  | 77.9
3 | CNS(=O)(=O)c1ccc2c(c1)C(=Cc1ccncc1)C(=O)N2 [10729/D09] | -9.6 | -12.1 | 34.8
4 | Cc1c(Br)ccc2c1C(=Cc1ccccn1)C(=O)N2 [10729/C07] | -22.4 | -1.8 | 58.4
5 | Cc1c(Br)ccc2c1C(=Cc1ccncc1)C(=O)N2 [10729/C09] | -26.4 | -34.8 | 60.4
6 | O=C1Nc2ccc(I)cc2C1=Cc1cccnc1 [10729/B08] | -14.7 | -13.6 | 66.0
7 | COc1ccc(OC)c(C=C2C(=O)Nc3ccc(CCCl)cc32)c1 [10728/G02] | 2.3 | 0.9 | 7.1
8 | O=C1Nc2ccc(CCCl)cc2C1=Cc1cc(C(F)(F)F)ccc1F [10728/G08] | 21.4 | -11.9 | 42.3
9 | Cc1ccsc1C=C1C(=O)Nc2ccc(S(=O)(=O)Nc3ccc(C(F)(F)F)cc3)cc21 [10729/E05] | 46.8 | 29.9 | 13.4
10 | O=C1Nc2ccc(I)cc2C1=Cc1ccccn1 [10729/B07] | -13.4 | -33.2 | 58.2
11 | CSc1ccc(C=C2C(=O)Nc3c(Br)cc(Br)cc32)cc1 [10729/A04] | -4.0 | -16.6 | 45.4
12 | O=C1Nc2c(Br)cc(Br)cc2C1=Cc1ccc(N2CCCC2)cc1 [10729/A10] | 0.7 | -12.8 | 34.8
13 | CSc1ccc(C=C2C(=O)Nc3ccc(S(=O)(=O)Nc4ccc(C(F)(F)F)cc4)cc32)cc1 [10729/E04] | 9.7 | 26.5 | 9.8
14 | O=C1Nc2ccc(S(=O)(=O)Nc3ccc(C(F)(F)F)cc3)cc2C1=Cc1ccccn1 [10729/E07] | 4.1 | 29.6 | 21.6
15 | O=C1Nc2ccc(I)cc2C1=Cc1ccncc1 [10729/B09] | -16.0 | -6.4 | 47.2
16 | O=C1Nc2ccc(S(=O)(=O)Nc3ccc(C(F)(F)F)cc3)cc2C1=Cc1cc(C(F)(F)F)ccc1F [10728/E08] | 15.2 | 29.4 | 46.3
17 | O=C1Nc2c(Br)cc(Br)cc2C1=Cc1ccco1 [10718/A10] | 23.4 |  | 77.9
18 | CNS(=O)(=O)c1ccc2c(c1)C(=Cc1ccc(N3CCCC3)cc1)C(=O)N2 [10729/D10] | 4.1 | -11.3 | 36.1
19 | CNS(=O)(=O)c1ccc2c(c1)C(=Cc1cc(OC)c3c(c1)OCO3)C(=O)N2 [10728/D11] | 15.9 | -10.2 | 52.5
20 | CNS(=O)(=O)c1ccc2c(c1)C(=Cc1cccc(C(F)(F)F)c1F)C(=O)N2 [10728/D07] | 8.1 | 2.3 | 21.8
21 | CNS(=O)(=O)c1ccc2c(c1)C(=Cc1ccc(SC)cc1)C(=O)N2 [10729/D04] | -5.7 | -12.8 | 33.1
22 | CNS(=O)(=O)c1ccc2c(c1)C(=Cc1cccnc1)C(=O)N2 [10729/D08] | -26.2 | -21.1 | 27.6
23 | Cc1ccsc1C=C1C(=O)Nc2ccc(I)cc21 [10729/B05] | -5.2 | -25.7 | 51.0
24 | O=C1Nc2ccc(S(=O)(=O)Nc3ccc(C(F)(F)F)cc3)cc2C1=Cc1cccc(Oc2ccccc2)c1 [10729/E06] | 12.1 | 24.7 | -0.7
25 | COc1cc(C=C2C(=O)Nc3ccc(CCCl)cc32)cc2c1OCO2 [10728/G11] | 3.2 | -12.8 | 71.4

Row | Structure (SMILES) | Fik Kinase %Inhibition (FLK-1 receptor) [%] | PDGF Kinase %Inhibition (PDGF-R) [%] | Met Kinase % Inhibition (MET) [%]
26 | COc1ccc2ccccc2c1C=C1C(=O)Nc2c(Br)cc(Br)cc21 [10729/A02] | 15.5 | -25.7 | 28.1
27 | O=C1Nc2ccc(S(=O)(=O)Nc3ccc(C(F)(F)F)cc3)cc2C1=Cc1ccc2c(c1)Cc1ccccc1-2 [10728/E06] | 6.6 | 12.0 | 26.4
28 | O=C1Nc2ccc(I)cc2C1=Cc1ccc2ccccc2c1O [10718/B04] | 11.8 |  | 63.9
29 | Cc1c(Br)ccc2c1C(=Cc1cccnc1)C(=O)N2 [10729/C08] | -20.3 | -13.6 | 55.7
30 | COc1ccc2ccccc2c1C=C1C(=O)Nc2ccc(I)cc21 [10729/B02] | 13.8 | -10.2 | 77.2
31 | COc1ccc(C=C2C(=O)Nc3ccc(S(=O)(=O)Nc4ccc(C(F)(F)F)cc4)cc32)c2ccccc12 [10729/E03] | 6.9 | 29.2 | 27.5
32 | CNS(=O)(=O)c1ccc2c(c1)C(=Cc1c(F)cccc1C(F)(F)F)C(=O)N2 [10728/D09] | 10.5 | -3.9 | 27.6
33 | COc1ccc(OC)c(C=C2C(=O)Nc3ccc(S(=O)(=O)NN4CCOCC4)cc32)c1 [10728/F02] | 2.9 | 7.2 | 25.6
34 | O=C(O)COc1ccccc1C=C1C(=O)Nc2ccc(CCCl)cc21 [10728/G10] | 10.4 | -0.8 | 27.9
35 | O=C1Nc2ccc(CCCl)cc2C1=Cc1ccc2c(c1)Cc1ccccc1-2 [10728/G06] | 13.5 | -13.3 | 25.3
36 | COc1ccc2ccccc2c1C=C1C(=O)Nc2ccc(S(=O)(=O)Nc3ccc(C(F)(F)F)cc3)cc21 [10729/E02] | 26.6 | 28.4 | 11.7
37 | Cc1ccsc1C=C1C(=O)Nc2ccc(Br)c(C)c21 [10729/C05] | 5.8 | -5.6 | 15.5
38 | O=C1Nc2ccc(I)cc2C1=CC1C=CCCC1 (stereo not shown) [10729/B11] | 7.8 | 4.2 | 36.6
39 | COc1cc(N(C)C)ccc1C=C1C(=O)Nc2ccc(S(=O)(=O)Nc3ccc(C(F)(F)F)cc3)cc21 [10728/E05] | 17.4 | 5.8 | 53.4
40 | O=C1Nc2c(Br)cc(Br)cc2C1=Cc1cccc(Oc2ccccc2)c1 [10729/A06] | -10.9 | -8.6 | 29.8
41 | CNS(=O)(=O)c1ccc2c(c1)C(=Cc1c(OC)ccc3ccccc13)C(=O)N2 [10729/D02] | 12.2 | 15.6 | 31.7
42 | COc1cc(C=C2C(=O)Nc3ccc(CCCl)cc32)cc(OC)c1 [10728/G04] | 21.8 | 0.5 | 20.9
43 | CNS(=O)(=O)c1ccc2c(c1)C(=Cc1ccccc1OCC(=O)O)C(=O)N2 [10728/D10] | 17.9 | -3.9 | 30.5
44 | O=C1Nc2c(Br)cc(Br)cc2C1=Cc1cccnc1 [10729/A08] | -13.3 | -23.4 | 48.1
45 | CNS(=O)(=O)c1ccc2c(c1)C(=CC1C=CCCC1)C(=O)N2 (stereo not shown) [10729/D11] | -2.0 | 0.1 | 18.8
46 | Cc1c(O)ccc(C=C2C(=O)Nc3c(Br)cc(Br)cc32)c1O [10718/A09] | -18.4 |  | 67.7
47 | Cc1ccc(C=C2C(=O)Nc3c(Br)cc(Br)cc32)s1 [10717/A07] | -6.4 |  | 29.2
48 | CCOC(=O)c1c(C)[nH]c(C=C2C(=O)Nc3ccc(I)cc32)c1C [10718/B02] | 7.0 |  | 52.9
49 | O=C1Nc2c(Br)cc(Br)cc2C1=Cc1ccc([N+](=O)[O-])o1 [10718/A11] | 2.7 |  | 58.9
50 | CCOC(=O)c1cc(C=C2C(=O)Nc3ccc(I)cc32)oc1C [10718/B06] | 16.5 |  | 78.4
